The text below walks through data of patent publication US9029337B2, “Modulation of factor 7 expression” (Isis Pharmaceuticals, Inc., priority 2007, dated 2015).

Strand notation (5' to 3'): a small letter for the sugar, then the base; units joined by * are phosphorothioate-linked, units joined directly phosphodiester-linked; [ ] holds rarer units or linkages, { } end groups; capitals alone tell only the bases. e = 2'-O-(2-methoxyethyl) (MOE); [5mC] = 5-methylcytosine; d = 2'-deoxy (DNA)

Format in all cases: cell-based
In series [1] the test system is human Factor 7 mRNA. The series is described as follows: Antisense inhibition of human Factor 7 mRNA in HepB3 cells, 50 nM antisense oligonucleotide, lipofectin. Conditions: for % Inhibition of human Factor 7 mRNA levels: gapmers targeted to nucleobases 4868 to 4899 of SEQ ID NO: 1, Table 8; for % Inhibition: Table 13 (microwalk), 50 nM, lipofectin, approximately 24 hours. A digest of the protocol:
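Cells plated at 4,000 per well were transfected and harvested after approximately 24 hours of treatment. Transcript levels, measured with primer probe set RTS 2927, were normalised to total RNA by RIBOGREEN®. Values are percent inhibition relative to untreated control cells.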

In series [2] the test system is human Factor 7 mRNA. Nature of the series: Dose-dependent antisense inhibition of human Factor 7 in HepB3 cells, lipofectin. The settings on record: HepB3 cells, approx. 16 hours (Table 14). The gist of the method: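 HepB3 cells (4,000/well) lipofectin-transfected with antisense oligonucleotide at 3.125 or 6.25 up to 100 nM for ~16 h. Factor 7 mRNA measured by real-time RT-PCR with primer probe set RTS 2927, adjusted to RIBOGREEN total RNA; expressed as percent inhibition versus untreated control cells.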

Series [3] relates to human Factor 7 mRNA. Nature of the series: Dose-dependent antisense inhibition of human Factor 7 in HepB3 cells, electroporation. As for the experimental part:
(§1) The gapmers were also transfected via electroporation and their dose-dependent inhibition of human Factor 7 mRNA was measured. Cells were plated at a density of 20,000 cells per well and transfected via electroporation with 3.125 μM, 6.25 μM, 12.5 μM, 25 μM, 50 μM, and 100 μM concentrations of antisense oligonucleotide, as specified in Table 15. After a treatment period of approximately 16 hours, RNA was isolated from the cells and Factor 7 mRNA levels were measured by quantitative real-time PCR. Human Factor 7 primer probe set RTS 2927 was used to measure mRNA levels. Factor 7 mRNA levels were adjusted according to total RNA content, as measured by RIBOGREEN®. Results are presented as percent inhibition of Factor 7, relative to untreated control cells.
as §1, with “Cells were” for “The gapmers were also transfected via electroporation and their dose-dependent inhibition of human Factor 7 mRNA was measured. Cells were”, “in […]. After a” for “in Table 15. After a”, “cells and human Factor 7” for “cells and Factor 7”

Setting [4] is: 3.125 μM, approx. 16 hours (Table 15, Example 7).
The mark [5] stands for this setting: 3.125 μM, approx. 16 hours (Table 16, Example 8 confirmation).
Where [6] appears, read: 6.25 μM, approx. 16 hours (Table 15, Example 7).
Where [7] appears, read: 6.25 μM, approx. 16 hours (Table 16, Example 8 confirmation).
Setting [8] is: 12.5 μM, approx. 16 hours (Table 15, Example 7).
Setting [9] is: 12.5 μM, approx. 16 hours (Table 16, Example 8 confirmation).
The mark [10] stands for this setting: 25 μM, approx. 16 hours (Table 15, Example 7).
Where [11] appears, read: 25 μM, approx. 16 hours (Table 16, Example 8 confirmation).
Setting [12] is: 50 μM, approx. 16 hours (Table 15, Example 7).
The mark [13] stands for this setting: 50 μM, approx. 16 hours (Table 16, Example 8 confirmation).
The mark [14] stands for this setting: 100 μM, approx. 16 hours (Table 15, Example 7).
Where [15] appears, read: 100 μM, approx. 16 hours (Table 16, Example 8 confirmation).

“422130 (antisense eG*e[5mC]*e[5mC]*eT*eG*dA*dG*dG*d[5mC]*d[5mC]*dA*dG*d[5mC]*dA*dG*eA*eT*e[5mC]*eA*e[5mC]) [compound 422130]”: the “% Inhibition (human Factor 7 mRNA levels)” value in series [1] (oligonucleotides targeted to nucleobases 14707 to 14732 of SEQ ID NO: 1 (Table 11)) came to 79%. Moreover, the “percent inhibition of Factor 7 mRNA, relative to untreated control cells” value in series [2] (3.125 nM) amounted to 4%; in series [2] (12.5 nM), 34%; in series [2] (25 nM) it was 59%; in series [2] (50 nM), 77%; in series [2] (100 nM) it was 85%; in series [2] it was 15%. Also, the “percent inhibition of Factor 7 mRNA, relative to untreated control cells” value was 28% in series [3] (setting [4]); 14% in series [3] (setting [5]); 29% in series [3] (setting [6]); 24% in series [3] (setting [7]); 59% in series [3] (setting [8]); 61% in series [3] (setting [9]). The “percent inhibition of Factor 7 mRNA, relative to untreated control cells” value is listed as 61% in series [3] (setting [10]); 68% in series [3] (setting [11]); 73% in series [3] (setting [12]); 82% in series [3] (setting [13]); 86% in series [3] (setting [14]); 88% in series [3] (setting [15]).

Consider “422140 (antisense eG*eT*eT*e[5mC]*eT*dG*d[5mC]*dA*dG*dG*dA*dG*d[5mC]*dG*dG*e[5mC]*e[5mC]*eT*eA*eA) [compound 422140]”, for which, in series [1], the “% Inhibition of human Factor 7 mRNA levels” value is given as 74%. Further, the “percent inhibition of Factor 7 mRNA, relative to untreated control cells” value in series [2] (3.125 nM) turned out to be 18%; in series [2] (12.5 nM) it was 49%; in series [2] (25 nM) it was 64%; in series [2] (50 nM), 74%; in series [2] (100 nM), 74%; in series [2] it was 35%. Moreover, the “percent inhibition of Factor 7 mRNA, relative to untreated control cells” value is 29% in series [3] (setting [4]); 34% in series [3] (setting [6]); 51% in series [3] (setting [8]); 64% in series [3] (setting [10]); 69% in series [3] (setting [12]); 77% in series [3] (setting [14]).

On to “422142 (antisense eG*eA*eG*eT*eT*d[5mC]*dT*dG*d[5mC]*dA*dG*dG*dA*dG*d[5mC]*eG*eG*e[5mC]*e[5mC]*eT) [compound 422142]”, for which the “% Inhibition of human Factor 7 mRNA levels” value in series [1] was determined as 73%. Also, the “percent inhibition of Factor 7 mRNA, relative to untreated control cells” value in series [2] (3.125 nM) came out at 16%; in series [2] (12.5 nM), 51%; in series [2] (25 nM), 66%; in series [2] (50 nM), 72%; in series [2] (100 nM) it was 68%; in series [2], 34%. The “percent inhibition of Factor 7 mRNA, relative to untreated control cells” value in series [3] (setting [4]) was 26%; in series [3] (setting [5]), 34%; in series [3] (setting [6]) it was 47%; in series [3] (setting [7]), 47%; in series [3] (setting [8]), 63%; in series [3] (setting [9]), 62%. Also, the “percent inhibition of Factor 7 mRNA, relative to untreated control cells” value in series [3] (setting [10]) was determined as 67%; in series [3] (setting [11]), 67%; in series [3] (setting [12]), 77%; in series [3] (setting [13]), 65%; in series [3] (setting [14]), 78%; in series [3] (setting [15]), 65%.

In the case of “422150 (antisense eG*e[5mC]*eA*dT*dG*dG*dT*dG*dA*dT*dG*d[5mC]*dT*dT*d[5mC]*dT*dG*eA*eA*eT) [compound 422150]”, the “% Inhibition” value in series [1] is listed as 74%. Further, the “percent inhibition of Factor 7 mRNA, relative to untreated control cells” value in series [2] (3.125 nM) came to 9%; in series [2] (12.5 nM), 38%; in series [2] (25 nM), 59%; in series [2] (50 nM), 79%; in series [2] (100 nM), 87%; in series [2], 23%. The “percent inhibition of Factor 7 mRNA, relative to untreated control cells” value in series [3] (setting [4]) is on record as 17%; in series [3] (setting [5]) it was 0%; in series [3] (setting [6]), 20%; in series [3] (setting [7]) it was 31%; in series [3] (setting [8]) it was 40%; in series [3] (setting [9]), 53%. In addition, the “percent inhibition of Factor 7 mRNA, relative to untreated control cells” value was found to be 54% in series [3] (setting [10]); 67% in series [3] (setting [11]); 68% in series [3] (setting [12]); 77% in series [3] (setting [13]); 83% in series [3] (setting [14]); 86% in series [3] (setting [15]).

Turning to “422152 (antisense eA*eT*eG*d[5mC]*dA*dT*dG*dG*dT*dG*dA*dT*dG*d[5mC]*dT*dT*d[5mC]*eT*eG*eA) [compound 422152]”, in series [1], the “% Inhibition” value was 74%. Moreover, the “percent inhibition of Factor 7 mRNA, relative to untreated control cells” value in series [2] (3.125 nM) amounted to 18%; in series [2] (12.5 nM), 47%; in series [2] (25 nM) it was 67%; in series [2] (50 nM), 83%; in series [2] (100 nM) it was 89%; in series [2] it was 29%. Besides, the “percent inhibition of Factor 7 mRNA, relative to untreated control cells” value was 14% in series [3] (setting [4]); 22% in series [3] (setting [6]); 32% in series [3] (setting [8]); 44% in series [3] (setting [10]); 65% in series [3] (setting [12]); 76% in series [3] (setting [14]).

Consider “422177 (antisense e[5mC]*e[5mC]*e[5mC]*dG*d[5mC]*d[5mC]*dG*dG*d[5mC]*dT*d[5mC]*dT*dG*d[5mC]*dT*d[5mC]*dA*eT*e[5mC]*e[5mC]) [compound 422177]”, for which the “% Inhibition (human Factor 7 mRNA levels)” value in series [1] (oligonucleotides targeted to nucleobases 13760 to 13789 of SEQ ID NO: 1 (Table 10)) came out at 74%. The “percent inhibition of Factor 7 mRNA, relative to untreated control cells” value in series [2] (3.125 nM) is recorded as 12%; in series [2] (12.5 nM), 44%; in series [2] (25 nM), 64%; in series [2] (50 nM) it was 81%; in series [2] (100 nM), 88%; in series [2], 24%. In addition, the “percent inhibition of Factor 7 mRNA, relative to untreated control cells” value in series [3] (setting [4]) was 3%; in series [3] (setting [6]) it was 10%; in series [3] (setting [8]), 29%; in series [3] (setting [10]) it was 21%; in series [3] (setting [12]) it was 31%; in series [3] (setting [14]), 63%.

The term % Inhibition denotes the percentage by which the read-out fell short of the control. Low values mean a weak effect, high ones a strong effect.
